From patent US20070049564A1 (Wyeth, priority 2005, published 2007)
In brackets after ≈: the same amount, converted by molar mass. Read-outs that look alike come from different tables or passages of the source.

Tests used:
[1] = test system: E. coli GC 2236; test: MIC, broth microdilution; settings: Escherichia coli
[2] = test system: E. coli GC 2235; test: MIC, broth microdilution; settings: Escherichia coli
[3] = test system: E. coli GC 2233; test: MIC, broth microdilution; settings: Escherichia coli
[4] = test system: E. coli GC 2234; test: MIC, broth microdilution; settings: Escherichia coli
[5] = test system: E. coli GC 2270; test: MIC, broth microdilution; settings: Escherichia coli
[6] = test system: E. coli GC 2271; test: MIC, broth microdilution; settings: Escherichia coli
[7] = test system: E. coli GC 4559; test: MIC, broth microdilution; settings: Escherichia coli
[8] = test system: E. coli GC 1073; test: MIC, broth microdilution; settings: Escherichia coli
[9] = test system: P. aeruginosa GC 2214; test: MIC, broth microdilution; settings: Pseudomonas aeruginosa
[10] = test system: S. aureus GC 1131; test: MIC, broth microdilution; settings: Staphylococcus aureus
[11] = test system: S. aureus GC 1079; test: MIC, broth microdilution; settings: Staphylococcus aureus
[12] = test system: S. aureus GC 2216; test: MIC, broth microdilution; settings: Staphylococcus aureus
[13] = test system: S. aureus GC 6335; test: MIC, broth microdilution; settings: Staphylococcus aureus
[14] = test system: S. epidermidis GC 4935; test: MIC, broth microdilution; settings: Staphylococcus epidermidis
Protocol: Antimicrobial susceptibility testing. The in vitro activities of the antibiotics are determined by the broth microdilution method as recommended by the National Committee for Clinical Laboratory Standards (NCCLS) (1). Mueller-Hinton II broth (MHBII)(BBL Cockeysville, Md.) is the medium employed in the testing procedures. Microtiter plates containing serial dilutions of each antimicrobial agent are inoculated with each organism to yield the appropriate density (10^5 CFU/ml) in a 100 μl final volume. The plates are incubated for 18-22 hours at 35° C. in ambient air.
Representative compounds were first incubated in mouse serum for an hour prior to the in vitro testing against a panel of selected gram-positive and gram-negative bacteria strains. All compounds were also pre-incubated in water for an hour prior to testing as control. Representative compounds of Formula I were incubated in human serum prior to MIC determination.

[15] = test system: E. faecalis GC 2242; test: MIC, broth microdilution; settings: Enterococcus faecalis
[16] = test system: E. faecium GC 4556; test: MIC, broth microdilution; settings: Enterococcus faecium
[17] = test system: S. pneumoniae+ GC 4465; test: MIC, broth microdilution; settings: Streptococcus pneumoniae
[18] = test system: S. pyogenes GC 4563; test: MIC, broth microdilution; settings: Streptococcus pyogenes
[19] = test system: c. albicans GC 3066; test: MIC, broth microdilution
[20] = test system: Staph. aureus Smith; test: In vivo activity (oral, iv; ED50) against Staph. aureus Smith in mice
Protocol: Representative examples of compounds of Formula I were tested for the oral efficacy using S. aureus Smith in mice.

## CC(C)CC(=O)OCOC(=O)N(CC(=O)Nc1cc(N(C)C)c2c(c1O)C(=O)C1=C(O)[C@]3(O)C(=O)C(C(N)=O)=C(O)[C@@H](N(C)C)[C@@H]3C[C@@H]1C2)C(C)(C)C [Example 53, ({[(2-{[(5aR,6aS,7S,10aS)-9-(aminocarbonyl)-4,7-bis(dimethylamino)-1,8,10a,11-tetrahydroxy-10,12-dioxo-5,5a,6,6a,7,10,10a,12-octahydrotetracen-2-yl]amino}-2-oxoethyl)(tert-butyl)amino]carbonyl}oxy)methyl 3-methylbutanoate]
[1]; GC2236, read-out: MINIMAL INHIBITORY CONCENTRATION MIC, Human Serum
  MIC: 16 µg/mL (≈ 21.5 µM)
[1]; GC2236, read-out: MINIMAL INHIBITORY CONCENTRATION MIC, Mouse Serum
  MIC: 1 µg/mL (≈ 1.34 µM)
[1]; GC2236, read-out: MINIMAL INHIBITORY CONCENTRATION MIC, Water
  MIC: 32 µg/mL (≈ 43 µM)
[2]; GC2235, read-out: MINIMAL INHIBITORY CONCENTRATION MIC, Human Serum
  MIC: 8 µg/mL (≈ 10.8 µM)
[2]; GC2235, read-out: MINIMAL INHIBITORY CONCENTRATION MIC, Mouse Serum
  MIC: 0.5 µg/mL (≈ 0.672 µM)
[2]; GC2235, read-out: MINIMAL INHIBITORY CONCENTRATION MIC, Water
  MIC: 32 µg/mL (≈ 43 µM)
[3]; GC2233, read-out: MINIMAL INHIBITORY CONCENTRATION MIC, Human Serum
  MIC: 16 µg/mL (≈ 21.5 µM)
[3]; GC2233, read-out: MINIMAL INHIBITORY CONCENTRATION MIC, Mouse Serum
  MIC: 1 µg/mL (≈ 1.34 µM)
[3]; GC2233, read-out: MINIMAL INHIBITORY CONCENTRATION MIC, Water
  MIC: 32 µg/mL (≈ 43 µM)
[4]; GC2234, read-out: MINIMAL INHIBITORY CONCENTRATION MIC, Human Serum
  MIC: 8 µg/mL (≈ 10.8 µM)
[4]; GC2234, read-out: MINIMAL INHIBITORY CONCENTRATION MIC, Mouse Serum
  MIC: 0.5 µg/mL (≈ 0.672 µM)
[4]; GC2234, read-out: MINIMAL INHIBITORY CONCENTRATION MIC, Water
  MIC: 16 µg/mL (≈ 21.5 µM)
[5]; GC2270, read-out: MINIMAL INHIBITORY CONCENTRATION MIC, Human Serum
  MIC: 8 µg/mL (≈ 10.8 µM)
[5]; GC2270, read-out: MINIMAL INHIBITORY CONCENTRATION MIC, Mouse Serum
  MIC: 1 µg/mL (≈ 1.34 µM)
[5]; GC2270, read-out: MINIMAL INHIBITORY CONCENTRATION MIC, Water
  MIC: 32 µg/mL (≈ 43 µM)
[6]; GC2271, read-out: MINIMAL INHIBITORY CONCENTRATION MIC, Human Serum
  MIC: 8 µg/mL (≈ 10.8 µM)
[6]; GC2271, read-out: MINIMAL INHIBITORY CONCENTRATION MIC, Mouse Serum
  MIC: 0.5 µg/mL (≈ 0.672 µM)
[6]; GC2271, read-out: MINIMAL INHIBITORY CONCENTRATION MIC, Water
  MIC: 16 µg/mL (≈ 21.5 µM)
[7]; GC4559, read-out: MINIMAL INHIBITORY CONCENTRATION MIC, Human Serum
  MIC: 16 µg/mL (≈ 21.5 µM)
[7]; GC4559, read-out: MINIMAL INHIBITORY CONCENTRATION MIC, Mouse Serum
  MIC: 1 µg/mL (≈ 1.34 µM)
[7]; GC4559, read-out: MINIMAL INHIBITORY CONCENTRATION MIC, Water
  MIC: 32 µg/mL (≈ 43 µM)
[8]; GC1073, read-out: MINIMAL INHIBITORY CONCENTRATION MIC, Human Serum
  MIC: 16 µg/mL (≈ 21.5 µM)
[8]; GC1073, read-out: MINIMAL INHIBITORY CONCENTRATION MIC, Mouse Serum
  MIC: 1 µg/mL (≈ 1.34 µM)
[8]; GC1073, read-out: MINIMAL INHIBITORY CONCENTRATION MIC, Water
  MIC: 32 µg/mL (≈ 43 µM)
[9]; GC2214, read-out: MINIMAL INHIBITORY CONCENTRATION MIC, Human Serum
  MIC: > 64 µg/mL
[9]; GC2214, read-out: MINIMAL INHIBITORY CONCENTRATION MIC, Mouse Serum
  MIC: 64 µg/mL (≈ 86 µM)
[9]; GC2214, read-out: MINIMAL INHIBITORY CONCENTRATION MIC, Water
  MIC: > 64 µg/mL
[10]; GC1131, read-out: MINIMAL INHIBITORY CONCENTRATION MIC, Human Serum
  MIC: 1 µg/mL (≈ 1.34 µM)
[10]; GC1131, read-out: MINIMAL INHIBITORY CONCENTRATION MIC, Mouse Serum
  MIC: 1 µg/mL (≈ 1.34 µM)
[10]; GC1131, read-out: MINIMAL INHIBITORY CONCENTRATION MIC, Water
  MIC: 1 µg/mL (≈ 1.34 µM)
[11]; GC1079, read-out: MINIMAL INHIBITORY CONCENTRATION MIC, Human Serum
  MIC: 0.5 µg/mL (≈ 0.672 µM)
[11]; GC1079, read-out: MINIMAL INHIBITORY CONCENTRATION MIC, Mouse Serum
  MIC: 0.5 µg/mL (≈ 0.672 µM)
[11]; GC1079, read-out: MINIMAL INHIBITORY CONCENTRATION MIC, Water
  MIC: 1 µg/mL (≈ 1.34 µM)
[12]; GC2216, read-out: MINIMAL INHIBITORY CONCENTRATION MIC, Human Serum
  MIC: 0.5 µg/mL (≈ 0.672 µM)
[12]; GC2216, read-out: MINIMAL INHIBITORY CONCENTRATION MIC, Mouse Serum
  MIC: 0.5 µg/mL (≈ 0.672 µM)
[12]; GC2216, read-out: MINIMAL INHIBITORY CONCENTRATION MIC, Water
  MIC: 1 µg/mL (≈ 1.34 µM)
[13]; GC6335, read-out: MINIMAL INHIBITORY CONCENTRATION MIC, Human Serum
  MIC: 0.5 µg/mL (≈ 0.672 µM)
[13]; GC6335, read-out: MINIMAL INHIBITORY CONCENTRATION MIC, Mouse Serum
  MIC: 0.5 µg/mL (≈ 0.672 µM)
[13]; GC6335, read-out: MINIMAL INHIBITORY CONCENTRATION MIC, Water
  MIC: 1 µg/mL (≈ 1.34 µM)
[14]; GC4935, read-out: MINIMAL INHIBITORY CONCENTRATION MIC, Human Serum
  MIC: 2 µg/mL (≈ 2.69 µM)
[14]; GC4935, read-out: MINIMAL INHIBITORY CONCENTRATION MIC, Mouse Serum
  MIC: 1 µg/mL (≈ 1.34 µM)
[14]; GC4935, read-out: MINIMAL INHIBITORY CONCENTRATION MIC, Water
  MIC: 2 µg/mL (≈ 2.69 µM)
[15]; GC2242, read-out: MINIMAL INHIBITORY CONCENTRATION MIC, Human Serum
  MIC: 2 µg/mL (≈ 2.69 µM)
[15]; GC2242, read-out: MINIMAL INHIBITORY CONCENTRATION MIC, Mouse Serum
  MIC: 0.5 µg/mL (≈ 0.672 µM)
[15]; GC2242, read-out: MINIMAL INHIBITORY CONCENTRATION MIC, Water
  MIC: 2 µg/mL (≈ 2.69 µM)
[16]; GC4556, read-out: MINIMAL INHIBITORY CONCENTRATION MIC, Human Serum
  MIC: 2 µg/mL (≈ 2.69 µM)
[16]; GC4556, read-out: MINIMAL INHIBITORY CONCENTRATION MIC, Mouse Serum
  MIC: 0.5 µg/mL (≈ 0.672 µM)
[16]; GC4556, read-out: MINIMAL INHIBITORY CONCENTRATION MIC, Water
  MIC: 2 µg/mL (≈ 2.69 µM)
[17]; read-out: MINIMAL INHIBITORY CONCENTRATION MIC, Human Serum
  MIC: 1 µg/mL (≈ 1.34 µM)
[17]; read-out: MINIMAL INHIBITORY CONCENTRATION MIC, Mouse Serum
  MIC: 2 µg/mL (≈ 2.69 µM)
[17]; read-out: MINIMAL INHIBITORY CONCENTRATION MIC, Water
  MIC: 2 µg/mL (≈ 2.69 µM)
[18]; GC4563, read-out: MINIMAL INHIBITORY CONCENTRATION MIC, Human Serum
  MIC: 0.25 µg/mL (≈ 0.336 µM)
[18]; GC4563, read-out: MINIMAL INHIBITORY CONCENTRATION MIC, Mouse Serum
  MIC: 0.12 µg/mL (≈ 0.161 µM)
[18]; GC4563, read-out: MINIMAL INHIBITORY CONCENTRATION MIC, Water
  MIC: 0.25 µg/mL (≈ 0.336 µM)
[19]; Candida albicans, GC3066, read-out: MINIMAL INHIBITORY CONCENTRATION MIC
  MIC: > 64 µg/mL
[19]; Human Serum
  MINIMAL INHIBITORY CONCENTRATION MIC: >64 UG/ML
[19]; Mouse Serum
  MINIMAL INHIBITORY CONCENTRATION MIC: >64 UG/ML
[20]; Staphylococcus aureus, in Mus musculus, iv, read-out: ED50 SIV (Staph aureus Smith)
  ED50: 0.73 mg/kg
[20]; Staphylococcus aureus, in Mus musculus, po, read-out: ED50 SOD (Staph aureus Smith)
  ED50: 5.08 mg/kg
[20]; Staphylococcus aureus, in Mus musculus, po, read-out: ED50 Staph Smith SOD
  ED50: 5.08 mg/kg
[20]; iv, read-out: ED50 Staph Smith SIV
  ED50: 0.73 mg/kg
